Laboratory results reported in article PMC12670400, “LEKTI-Grafted Sunflower Trypsin Inhibitor: A Potential Therapeutic for Skin Diseases” (Journal of Medicinal Chemistry, 2025).
Bridge positions count the residues as written; N and C are the ends. Peptide text beside a SMILES is read from it.

Legend:
[1] = test system: endogenous KLK5 of healthy donor keratinocytes; assay: KLK5 protease activity assay for culture medium of healthy donor keratinocytes; format: biochemical, human; settings: 100 nM, 1 μM, 10 μM; p > 0.05, n = 9
Experimental: To evaluate the inhibition of lead 7 on endogenous KLK5 activity, media collected from cultured NS keratinocytes and healthy donor keratinocytes were incubated with lead 7 at the final concentration of 100 nM, or 1 μM, or 10 μM for one hour. Media were then concentrated, and KLK5 activity was measured. […] There were significant differences in KLK5 activity before and after treatment (p < 0.05, n = 3). […] This may be because lead 7 exerts inhibitory effects only when KLK5 activity exceeds a certain threshold, which is not reached in keratinocytes from healthy donors. It was noted that the activity of KLK5 in NS was not reduced to the levels observed in normal keratinocytes. […]
calcium signalling. […] Fluorescence excitation was set at 485 nm, and emission was recorded at 520 nm using SpectraMax® i3x plate reader. […]
Keratinocytes were seeded in 6 well plate with the density of 0.2 × 10⁶ cells per well and cultured in RM+ medium until they reached confluency. […] The enzymatic reaction was initiated by adding 100 µL of Boc-VPR-AMC substrate (final concentration 100 µM) to each well and RFU values in samples were measured. Protease activities were expressed as nmol/g by first converting RFU readings to KLK5 equivalent concentration activity using a KLK5 standard curve, followed by normalization to total protein content

NS keratinocytes = assay: Transepithelial electrical resistance (TEER) assay, NS keratinocytes; format: cell-based, human; settings: 1 μM, 9 days, p < 0.05, n = 18
From the text: (§1) KLK5 regulates epidermal barrier homeostasis by targeting corneodesmosomal proteins involved in cell–cell adhesion, including desmoglein-1 (DSG1), desmocollin-1 (DSC1), and corneodesmosin (CDSN). Dysregulated KLK5 activity can accelerate the degradation of these adhesion molecules, leading to impaired corneocyte cohesion and disruption of the epithelial barrier. To assess whether control of KLK5 activity by lead 7 could improve barrier integrity, the resistance of epidermal sheets generated using NS and healthy donor keratinocytes was measured using a transepithelial electrical resistance (TEER) assay. Keratinocytes from NS keratinocyte and three healthy donors were seeded in 6-well plates and cultured in the medium with 1 μM of lead 7 or without. The medium was replaced every 3 days with fresh lead 7 added in the treated groups. TEER measurements were performed every other day, and cultures were maintained until TEER values reached a plateau (9 days).
(§2) Transepithelial Electrical Resistance (TEER) assay […]
(§3) Transepithelial electrical resistance (TEER) values in ohms (Ω) were measured using the EVOM™ Manual Resistance Meter (World Precision Instruments, cat no. EVM-MT-03-02). Background resistance was first recorded using inserts containing only medium (without cells). […]
(§4) One-way ANOVA was used for KLK5 activity study. […] TEER study data was analysed using the Wilcoxon […]

[2] = test system: healthy donor keratinocytes; assay: Transepithelial electrical resistance (TEER) assay, healthy donor keratinocytes; format: cell-based, human; settings: 1 μM, 9 days, p > 0.05, n = 54
From the text: as §1, §2, §3, §4

C[C@@H](O)[C@@H]1NC(=O)[C@@H]2CSSC[C@H](NC(=O)[C@H](CCC(=O)O)NC(=O)[C@@H]3CCCN3C(=O)[C@@H]3CCCN3C(=O)[C@H](CC(N)=O)NC(=O)[C@H](CO)NC(=O)[C@H](CCCNC(=N)N)NC1=O)C(=O)N[C@@H](Cc1c[nH]c3ccccc13)C(=O)N1CCC[C@H]1C(=O)N[C@@H](CC(N)=O)C(=O)NCC(=O)N[C@@H](Cc1ccccc1)C(=O)N2 [compound 7] (cyclo(GFCTRSNPPECWPN); disulfide 3-11)
KLK5 activity before and after treatment, normal donor keratinocytes [1]: no significant differences | TEER, treated versus untreated NS keratinocytes (NS keratinocytes): obvious increase in TEER values | TEER, treated versus untreated healthy donor keratinocytes [2]: no differences
